In patent publication EP2790511B1 (Merck Sharp & Dohme Corp., priority 2011, dated 2013) one finds IC50 data, which are given here for 20 compounds.

One may read the pIC50 as the negative decadic logarithm of the IC50, by convention in mol/L.

In the experiment the target is T1, hROMK (hKir1.1) (Homo sapiens, UniProt P48048).
T1 construct: expressed in transfected cells
T1 sequence (P48048 1-391): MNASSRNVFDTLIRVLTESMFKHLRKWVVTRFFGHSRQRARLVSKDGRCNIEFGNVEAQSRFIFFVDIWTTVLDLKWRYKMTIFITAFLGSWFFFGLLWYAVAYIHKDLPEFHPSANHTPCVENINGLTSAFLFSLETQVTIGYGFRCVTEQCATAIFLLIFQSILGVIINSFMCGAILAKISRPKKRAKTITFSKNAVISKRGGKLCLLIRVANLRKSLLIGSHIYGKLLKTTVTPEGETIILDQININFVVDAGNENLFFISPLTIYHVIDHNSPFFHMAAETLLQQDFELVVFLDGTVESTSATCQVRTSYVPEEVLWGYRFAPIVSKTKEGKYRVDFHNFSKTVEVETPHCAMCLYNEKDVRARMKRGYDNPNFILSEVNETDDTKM
Kind of experiment: Thallium Flux Assay. It is filed as cell-based. The procedure, abridged: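 HEK293 cells stably expressing hROMK, loaded with FluxOR dye 90 min at ambient temperature, then compound 30 min with 0.3 mM ouabain in probenecid buffer pH 7.4.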

The mark [1] stands for this setting: HEK293 cells stably expressing hROMK (hKir1.1), FLIPR-Tetra, read-out: Thallium Flux IC50.

pIC50: −log10 of the molar value. Like-named read-outs stand apart in the source and are kept apart here.

Turning to `C[C@@H]1Cc2cc([C@]3(C)CN4CCN(C(=O)Cc5ccc(-n6cnnn6)nc5)C[C@H]4CO3)ccc2C(=O)O1` [Example 105, (3R)-3-methyl-6-[(3R,9a,S)-3-methyl-8-{[6-(1H-tetrazol-1-vl)pvridin-3-yl]acetyl}octahydropyrazino[2,1-c][1,4]oxazin-3-yl]-3,4-dihydro-1H-isochromen-1-one], the pIC50 under setting [1] is 6.46.
Same read-out and setting: under `C[C@H]1Cc2cc([C@]3(C)CN4CCN(C(=O)Cc5ccc(-n6cnnn6)nc5)C[C@H]4CO3)ccc2C(=O)O1` [Example 106, (3S)-3-methyl-6-[(3R,9aS)-3-methyl-8-{[6-(1H-tetrazol-1-yl)pyridin-3-yl]acetyl}octahydropyrazino[2,1-c][1,4]oxazin-3-yl]-3,4-dihydro-1H-isochromen-1-one] stands 6.38; under `N#Cc1c(F)cc([C@@H]2CN3CCN(C(=O)Cc4ccc(-n5cnnn5)nc4)C[C@@H]3CO2)cc1F` [Example 107, 2,6-difluoro-4-[(3R,9aR)-8-{[6-(1H-tetrazol-1-yl)pyridin-3-yl]acetyl}octahydropyrazino[2,1-c][1,4]oxazin-3-yl]benzonitrile], 6.77.
On to `N#Cc1c(F)cc([C@H]2CN3CCN(C(=O)Cc4ccc(-n5cnnn5)nc4)C[C@@H]3CO2)cc1F` [Example 108, 2,6-difluoro-4-[(3S,9aR)-8-{[6-(1H-tetrazol-1-yl)pyridin-3-yl]acetyl}octahydropyrazino[2,1-c][1,4]oxazin-3-yl]benzonitrile], for which the pIC50 under setting [1] was 6.31.
Consider `N#Cc1c(F)cc([C@H]2CN3CCN(C(=O)Cc4ccc(-n5cnnn5)nc4)C[C@H]3CO2)cc1F` [Example 109, 2,6-difluoro-4-[(3S,9aS)-8-{[6-(1H-tetrazol-1-yl)pyridin-3-yl]acetyl}octahydropyrazino[2,1-c][1,4]oxazin-3-yl]benzonitrile], for which, under setting [1], the pIC50 is 6.72.
Consider `N#Cc1c(F)cc([C@@H]2CN3CCN(C(=O)Cc4ccc(-n5cnnn5)nc4)C[C@H]3CO2)cc1F` [Example 110, 2,6-difluoro-4-[(3R,9aS)-8-{[6-(1H-tetrazol-1-yl)pyridin-3-yl]acetyl}octahydropyrazino[2,1-c][1,4]oxazin-3-yl]benzonitrile], for which the negative logarithm of the IC50 (pIC50) under setting [1] was 6.43.
For `COc1cc([C@@H]2CN3CCN(C(=O)Cc4ccc(-n5cnnn5)nc4)C[C@@H]3CO2)cc(F)c1C#N` [Example 111, 2-fluoro-6-methoxy-4-[(3R,9aR)-8-{[6-(1H-tetrazol-1-vl)pvridin-3-yl]acetyl}octahydropyrazino[2,1-c][1,4]oxazin-3-yl]benzonitrile], the pIC50 under setting [1] was 6.77.
Still for that read-out and setting: the figure for `COc1cc([C@H]2CN3CCN(C(=O)Cc4ccc(-n5cnnn5)nc4)C[C@@H]3CO2)cc(F)c1C#N` [Example 112, 2-fluoro-6-methoxy-4-[(3S,9aR)-8-{[6-(1H-tetrazol-1-vl)pvridin-3-yl]acetyl}octahydropyrazino[2,1-c][1,4]oxazin-3-yl]benzonitrile] is 6.66; for `COc1cc([C@H]2CN3CCN(C(=O)Cc4ccc(-n5cnnn5)nc4)C[C@H]3CO2)cc(F)c1C#N` [Example 113, 2-fluoro-6-methoxy-4-[(3S,9aS)-8-{[6-(1H-tetrazol-1-vl)pvridin-3-yl]acetyl}octahydropyrazino[2,1-c][1,4]oxazin-3-yl]benzonitrile] it is 6.92.
Take `COc1cc([C@@H]2CN3CCN(C(=O)Cc4ccc(-n5cnnn5)nc4)C[C@H]3CO2)cc(F)c1C#N` [Example 114, 2-fluoro-6-methoxy-4-[(3R,9aS)-8-{[6-(1H-tetrazol-1-vl)pvridin-3-yl]acetyl}octahydropyrazino[2,1-c][1,4]oxazin-3-yl]benzonitrile]: where the note is “Thallium Flux IC50”, the pIC50 was 6.96.
On the same count and under the same terms, under `N#Cc1c(F)cc([C@@H]2CN3CCN(C(=O)Cc4cnc(-n5cnnn5)nc4)C[C@@H]3CO2)cc1F` [Example 115, 2,6-difluoro-4-[(3R,9aR)-8-{[2-(1H-tetrazol-1-yl)pyrimidin-5-yl]acetyl}octahydropyrazino[2,1-c][1,4]oxazin-3-yl]benzonitrile] stands 6.57.
`Cc1c(C#N)cccc1[C@@H]1CN2CCN(C(=O)Cc3cnc(-n4cnnn4)nc3)C[C@@H]2CO1` [Example 116, 2-methyl-3-[(3R,9aR)-8-{[2-(1H-tetrazol-1-yl)pyrimidin-5-yl]acetyl}octahydropyrazino[2,1-c] [1,4]oxazin-3-yl]benzonitrile]: the pIC50 under setting [1] was 6.48.
For the setting “Thallium Flux IC50”, `Cc1c(C#N)cccc1[C@@H]1CN2CCN(C(=O)Cc3ccc(-n4cnnn4)nc3)C[C@@H]2CO1` [Example 117, 2-methyl-3-[(3R,9aR)-8-{[6-(1H-tetrazol-1-yl)pyridin-3-yl]acetyl}octahydropyrazino[2,1-c] [1,4]oxazin-3-yl]benzonitrile] had a pIC50 of 6.66.
The same measure, in the same setting: the figure for `Cc1nc(-n2cnnn2)ncc1CC(=O)N1CCN2C[C@@H](c3ccc(F)c(C#N)c3C)OC[C@@H]2C1` [Example 118, 6-fluoro-2-methyl-3-[(3R,9aS)-8-{[4-methyl-2-(1H-tetrazol-1-vl)pvrimidin-5-yl]acetyl}octahydropyrazino[2,1-c][1,4]oxazin-3-yl]benzonitrile] is 6.92; for `Cc1nc(-n2cnnn2)ncc1CC(=O)N1CCN2C[C@H](c3ccc(F)c(C#N)c3C)OC[C@H]2C1` [Example 119, 6-fluoro-2-methyl-3-[(3S,9aR)-8-{[4-methyl-2-(1H-tetrazol-1-vl)pvrimidin-5-yl]acetyl}octahydropyrazino[2,1-c][1,4]oxazin-3-yl]benzonitrile] it is 6.48.
With `Cc1nc(-n2cnnn2)ncc1CC(=O)N1CCN2C[C@@H](c3ccc(F)c(C#N)c3C)OC[C@H]2C1` [Example 120, 6-fluoro-2-methyl-3-[(3R9aR)-8-{[4-methyl-2-(1H-tetrazol-1-yl)pyrimidin-5-yl]acetyl}octahydropyrazino[2,1-c][1,4]oxazin-3-yl]benzonitrile], the pIC50 under setting [1] is 6.70.
Still for that read-out and setting: under `Cc1c([C@@H]2CN3CCN(C(=O)Cc4cnc(-n5cnnn5)nc4)C[C@@H]3CO2)ccc2c1COC2=O` [Example 122, 4-methyl-5-[(3R,9aR)-8-{[2-(1H-tetrazol-1-yl)pyrimidin-5-yl]acetyl}octahydropyrazino[2,1-c][1,4]oxazin-3-yl]-2-benzofuran-1(3H)-one] stands 6.41.
The compound `Cc1c([C@@H]2CN3CCN(C(=O)Cc4cnc(-n5cnnn5)cn4)C[C@@H]3CO2)ccc2c1COC2=O` [Example 123, 4-methyl-5-[(3R,9aR)-8-{[5-(1H-tetrazol-1-yl)pyrazin-2-yl]acetyl}octahydropyrazino[2,1-c] [1,4]oxazin-3-yl]-2-benzofuran-1(3H)-one] showed a pIC50 (Thallium Flux IC50) of 6.16.
In the case of `COc1cc(-n2cnnn2)cnc1CC(=O)N1CCN2C[C@@H](c3ccc(F)c(C#N)c3C)OC[C@H]2C1` [Example 124, 6-fluoro-3-[(3R,9aR)-8-{[3-methoxy-5-(1H-tetrazol-1-vl)pvridin-2-yl]acetyl}octahydropyrazino[2,1-c][1,4]oxazin-3-yl]-2-methylbenzonitrile], the pIC50 under setting [1] is 6.48.
Where the note is “Thallium Flux IC50”, `N#Cc1c(F)ccc([C@@H]2CN3CCN(C(=O)Cc4cnc(-n5cnnn5)nc4)C[C@@H]3CO2)c1Cl` [Example 125, 2-chloro-6-fluoro-3-[(3R,9aR)-8-{[2-(1H-tetrazol-1-yl)pyrimidin-5-yl]acetyl}octahydropyrazino[2,1-c][1,4]oxazin-3-yl]benzonitrile] showed a pIC50 of 7.22.
